Test results published in US8178547B2, “Heterocyclic antiviral compounds” (Roche Palo Alto LLC, priority 2008, dated 2012).

What was measured:
[1] = target: T1, HCV polymerase (NS5B570n-Con1) (Hepatitis C virus genotype 1b, UniProt Q9WMX2); assay: HCV NS5B RNA polymerase activity; format: biochemical, HCV Con1 strain
T1 construct: a 21 amino acid C-terminal deletion of full-length HCV polymerase; made in house; host or cells: E. coli BL21(DE3) pLysS, plasmid pET17b
Procedure: The enzymatic activity of HCV polymerase (NS5B570n-Con1) was measured as the incorporation of radiolabeled nucleotide monophosphates into acid insoluble RNA products. Unincorporated radiolabeled substrate was removed by filtration and scintillant was added to the washed and dried filter plate containing radiolabeled RNA product. The amount of RNA product generated by NS5B570n-Con1 at the end of the reaction was directly proportional to the amount of light emitted by the scintillant.
The HCV polymerase used in the enzymatic activity assay is a 21 amino acid C-terminal deletion of full-length HCV polymerase derived from HCV Con1 strain, genotype 1b (GenBank accession number AJ242654) (NS5B570n-Con1). The NS5B570n-Con1 was sub-cloned downstream to the T7 promoter of the plasmid expression construct pET17b and transformed into E. coli strain BL21(DE3) pLysS for protein expression. A single colony was used to start an innoculum for a 10 L culture in LB media supplemented with 100 μg/mL ampicillin at 37° C. Protein expression was induced by the addition of 0.25 mM isopropyl-β-D-thiogalactopyranoside (IPTG) when the optical density of the culture at […] was 0.8. Induction of protein expression was carried out at 30° C. for 16 h after which the cells were harvested by centrifugation. NS5B570n-Con1 was purified to homogeneity using a three-column purification protocol including subsequent column chromatography on Ni-NTA, SP-Sepharose HP and Superdex 75 resins.
[…] TRK-412; specific activity: 30 to 60 Ci/mmol;), 1 μM each ATP, CTP, and GTP, 40 mM Tris-HCl pH 8.0, 40 mM NaCl, 4 mM DTT (dithiothreitol), 4 mM MgCl2, 5 μl of compound serial diluted in DMSO, and nuclease-free water to a final reaction volume of 50 μl. Enzymatic reactions in the presence of poly A RNA template (see section 0004) contained 20 nM Poly A:oligo(rU)16 premixed (see section 0004), 20 nM NS5B570n-Con1 enzyme, 1 μCi of tritiated UTP (Perkin Elmer catalog no. TRK-412; specific activity: 30 to 60 Ci/mmol), 40 mM Tris-HCl pH 8.0, 40 mM NaCl, 4 mM DTT (dithiothreitol), 4 mM MgCl2, 5 μl of compound serial diluted in DMSO, and nuclease-free water to a final reaction volume of 50 μl. Reaction mixtures were assembled in 96-well filter plates (cat #MADVN0B, Millipore Co.) and incubated for 2 h at 30° C. Reactions were stopped by addition of 10% final (v/v) trichloroacetic acid and incubated for 40 min at 4° C. Reactions were filtered, washed with 8 reaction volumes of 10% (v/v) trichloroacetic acetic acid, 4 reaction volumes of 70% (v/v) ethanol, air dried, and 25 μl of scintillant (Microscint 20, Perkin-Elmer) was added to each reaction well.
Two RNA templates were used to assay compounds described herein. The cIRES RNA template was 377 nucleotide long and consisted of a partial complementary sequence (36 nucleotides) of the core protein, followed by 341 nucleotide of the complementary sequence of the internal ribosome entry site. The poly A RNA template (GE Amersham catalog number 27-4110) was a homopolymeric RNA pre-annealed to a oligo(rU)16 primer at a molar ratio of 3-to-1 (primer-template).
The amount of light emitted from the scintillant was converted to counts per minute (CPM) on a Topcount® plate reader (Perkin-Elmer, Energy Range: Low, Efficiency Mode: Normal, Count Time: 1 min, Background Subtract: none, Cross talk reduction: Off).
Data was analyzed in Excel® (Microsoft) and ActivityBase® (Idbs®). The reaction in the absence of enzyme was used to determine the background signal, which was subtracted from the enzymatic reactions. […] All data was expressed as a percentage of the positive control. The compound concentration at which the enzyme-catalyzed rate of RNA synthesis was reduced by 50%

[2] = NS5B pol inhibition IC50, as in Example 32 (20 nM RNA template)
[3] = NS5B pol inhibition IC50, cell values marked ^2, as in Example 32 except RNA template concentration 3 nM (footnote 3)

| SMILES | IC50 [1, 2] [nM] | melting point [°C] | IC50 [1, 3] [nM] |
| --- | --- | --- | --- |
| COc1c(CCc2ccc(NC(C)=O)cc2)cc(-c2ncc[nH]c2=O)cc1C(C)(C)C [Compound I-2, N-(4-{2-[3-tert-Butyl-2-methoxy-5-(3-oxo-3,4-dihydro-pyrazin-2-yl)-phenyl]-ethyl}-phenyl)-acetamide] | 710 | 181 to 185 |  |
| COc1c(CCc2ccc(NS(C)(=O)=O)cc2)cc(-c2ncc[nH]c2=O)c(F)c1C(C)(C)C [Compound I-3, N-(4-{2-[3-tert-Butyl-4-fluoro-2-methoxy-5-(3-oxo-3,4-dihydro-pyrazin-2-yl)-phenyl]-ethyl}-phenyl)-methanesulfonamide] | 41 | 130 to 132 |  |
| CC(C)(C)c1cc(CCc2ccc(NS(C)(=O)=O)cc2)c(O)c(-c2ncc[nH]c2=O)c1 [Compound I-5, N-(4-{2-[5-tert-butyl-2-hydroxy-3-(3-oxo-3,4-dihydro-pyrazin-2-yl)-phenyl]-ethyl}-phenyl)-methanesulfonamide] | 92 |  |  |
| CC(C)(C)c1cc(/C=C/c2ccc(NS(C)(=O)=O)cc2)c(O)c(-c2ncc[nH]c2=O)c1 [Compound I-6, N-(4-{(E)-2-[5-tert-Butyl-2-hydroxy-3-(3-oxo-3,4-dihydro-pyrazin-2-yl)-phenyl]-vinyl}-phenyl)-methanesulfonamide] | 454 | 280 to 282 |  |
| COc1c(/C=C/c2ccc(NS(C)(=O)=O)cc2F)cc(-c2c[nH]c(=O)[nH]c2=O)cc1C(C)(C)C [Compound I-7, N-(4-{(E)-2-[3-tert-Butyl-5-(2,4-dioxo-1,2,3,4-tetrahydro-pyrimidin-5-yl)-2-methoxy-phenyl]-vinyl}-3-fluoro-phenyl)-methanesulfonamide] | 0.3 |  |  |
| COc1c(/C=C/c2ccc(NS(C)(=O)=O)cc2)cc(-c2cn(C)c(=O)[nH]c2=O)cc1C(C)(C)C [Compound I-8, N-(4-{(E)-2-[3-tert-Butyl-2-methoxy-5-(1-methyl-2,4-dioxo-1,2,3,4-tetrahydro-pyrimidin-5-yl)-phenyl]-vinyl}-phenyl)-methanesulfonamide] | 1.3 | > 300 |  |
| CC(C)(C)c1cc(/C=C/c2ccc(NS(C)(=O)=O)cc2)cc(-c2ncc[nH]c2=O)c1 [Compound I-10] | 7 | 283 to 285 |  |
| COc1c(/C=C/c2ccc(NS(C)(=O)=O)cc2)cc(-c2ncc[nH]c2=O)cc1C(C)(C)C [Compound I-11, N-(4-{(E)-2-[3-tert-Butyl-2-methoxy-5-(3-oxo-3,4-dihydro-pyrazin-2-yl)-phenyl]-vinyl}-phenyl)-methanesulfonamide] | 4 |  |  |
| Cc1cc(-c2ccn[nH]c2=O)cc(C(C)(C)C)c1 [Compound I-12] | 390 | 175 to 176 |  |
| COc1c(/C=C/c2ccccc2)cc(-c2ccn[nH]c2=O)cc1C(C)(C)C [Compound I-14] | 7 | 100 to 102 |  |
| CC(C)(C)c1cc(/C=C/c2ccc(NS(C)(=O)=O)cc2)cc(-c2ccn[nH]c2=O)c1 [Compound I-15] | 3 |  |  |
| COc1ccc(-c2ccn[nH]c2=O)cc1C(C)(C)C [Compound I-16] | 132 | 202 to 204 |  |
| COc1c(/C=C/c2ccc(NS(C)(=O)=O)cc2)cc(-c2cc(C)n[nH]c2=O)cc1C(C)(C)C [Compound I-17] | 10 | 292 to 294 |  |
| COc1c(NC(=O)c2ccc(N)cc2)cc(-c2ccn[nH]c2=O)cc1C(C)(C)C [Compound I-19, 4-Amino-N-[3-tert-butyl-2-methoxy-5-(3-oxo-2,3-dihydro-pyridazin-4-yl)-phenyl]-benzamide] | 15 | 174 to 176 |  |
| COc1c(NC(=O)c2ccc(NCC(F)(F)F)cc2)cc(-c2ccn[nH]c2=O)cc1C(C)(C)C [Compound I-20, N-[3-tert-Butyl-2-methoxy-5-(3-oxo-2,3-dihydro-pyridazin-4-yl)-phenyl]-4-(2,2,2-trifluoro-ethylamino)-benzamide] | 5 | 250 to 252 | 3 |
| CC1(C)COc2c(-c3ncc[nH]c3=O)cc(/C=C/c3ccc(NS(C)(=O)=O)cc3)cc21 [Compound I-23, N-(4-{(E)-2-[3,3-Dimethyl-7-(3-oxo-3,4-dihydro-pyrazin-2-yl)-2,3-dihydro-benzofuran-5-yl]-vinyl}-phenyl)-methanesulfonamide] |  | 302 to 304 | 19 |
| COc1c(/C=C/c2ccc(NS(C)(=O)=O)cc2)cc(-c2ccn[nH]c2=O)cc1C1CC1 [Compound I-26, N-(4-{(E)-2-[3-Cyclopropyl-2-methoxy-5-(3-oxo-2,3-dihydro-pyridazin-4-yl)-phenyl]-vinyl}-phenyl)-methanesulfonamide] | 2.1 | 269 to 271 |  |
| COc1c(/C=C/c2ccc(NS(C)(=O)=O)cc2)cc(-c2ccn[nH]c2=O)c2c1C(C)(C)CO2 [Compound I-27, N-(4-{(E)-2-[4-Methoxy-3,3-dimethyl-7-(3-oxo-2,3-dihydro-pyridazin-4-yl)-2,3-dihydro-benzofuran-5-yl]-vinyl}-phenyl)-methanesulfonamide] | 0.3 |  |  |
| COc1c(/C=C/c2ccc(NS(C)(=O)=O)cn2)cc(-c2c[nH]c(=O)[nH]c2=O)cc1C(C)(C)C [Compound I-29, N-(6-{(E)-2-[3-tert-Butyl-5-(2,4-dioxo-1,2,3,4-tetrahydro-pyrimidin-5-yl)-2-methoxy-phenyl]-vinyl}-pyridin-3-yl)-methanesulfonamide] | 1.2 |  |  |
| COc1c(-c2ccc3cc(NS(C)(=O)=O)ccc3c2)cc(-c2ncn[nH]c2=O)cc1C(C)(C)C [Compound I-37, N-{6-[3-tert-Butyl-2-methoxy-5-(6-oxo-1,6-dihydro-[1,2,4]triazin-5-yl)-phenyl]-naphthalen-2-yl}-methanesulfonamide] | 0.7 |  |  |
| COc1c(/C=C/c2ccc(NS(C)(=O)=O)cc2)cc(-c2c[nH]c(=O)[nH]c2=O)cc1CC(F)(F)F [Compound I-38, N-(4-{(E)-2-[5-(2,4-Dioxo-1,2,3,4-tetrahydro-pyrimidin-5-yl)-2-methoxy-3-(2,2,2-trifluoro-ethyl)-phenyl]-vinyl}-phenyl)-methanesulfonamide] | 1.4 |  |  |
| COCc1cc(NS(C)(=O)=O)ccc1/C=C/c1cc(-c2cnc(OC)[nH]c2=O)cc(C(C)(C)C)c1OC [Compound I-39, N-(4-{(E)-2-[3-tert-Butyl-2-methoxy-5-(2-methoxy-6-oxo-1,6-dihydro-pyrimidin-5-yl)-phenyl]-vinyl}-3-methoxymethyl-phenyl)-methanesulfonamide] | 0.9 |  |  |
| COc1c(/C=C/c2ccc(NS(C)(=O)=O)cc2)cc(-c2c(O)nc(C)[nH]c2=O)cc1C(C)(C)C [Compound I-41, N-(4-{(E)-2-[3-tert-Butyl-5-(4-hydroxy-2-methyl-6-oxo-1,6-dihydro-pyrimidin-5-yl)-2-methoxy-phenyl]-vinyl}-phenyl)-methanesulfonamide] | 0.4 |  |  |
| COc1c(/C=C/c2ccc(NS(C)(=O)=O)cc2)cc(-c2cnc(C)[nH]c2=O)cc1C(C)(C)C [Compound I-43, N-(4-{(E)-2-[3-tert-Butyl-2-methoxy-5-(2-methyl-6-oxo-1,6-dihydro-pyrimidin-5-yl)-phenyl]-vinyl}-phenyl)-methanesulfonamide] | 1.1 |  |  |
